Experimental data reported in patent publication US20250179073A1, “TRICYCLIC HETEROCYCLE COMPOUNDS AS IAP ANTAGONISTS” (Ascentage Pharma (Suzhou) Co., Ltd., priority 2022, published 2025).

How the values were obtained:
MDA-MB-231 cells = test: Cell proliferation assay (CellTiter-Glo), MDA-MB-231; type: cell-based; conditions: Homo sapiens, MDA-MB-231, 72 h, 72 h treatment, Celltiter-Glo luminescence
Outline: (§1)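 Compounds tested over ten concentrations ([…]) for 72 h on EVSA-T cells in MEM/10% FBS and MDA-MB-231 cells in RPMI-1640/10% FBS, seeded at 10000/well. Luminescent CellTiter-Glo readout; IC50 fitted after normalisation to controls.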

EVSA-T cells = test: Cell proliferation assay (CellTiter-Glo), EVSA-T; type: cell-based; conditions: Homo sapiens, EVSA-T, 72 h, 72 h treatment, Celltiter-Glo luminescence
Outline: as §1

| Structure (SMILES) | IC50 (MDA-MB-231 cells) | IC50 (EVSA-T cells) |
| --- | --- | --- |
| CC(C)NC(=O)c1nc2c(Cc3ccc(F)cc3)cc3c(n2n1)C(C)(C)CN3C(=O)CN1C[C@@H](C)NC[C@@H]1CN1CCOC[C@H]1C [Compound 256, 4-(4-fluorobenzyl)-N-isopropyl-8,8-dimethyl-6-(2-((2R,5R)-5-methyl-2-(((R)-3-methylmorpholino)methyl)piperazin-1-yl)acetyl)-7,8-dihydro-6H-pyrrolo[2,3-e][1,2,4]triazolo[1,5-a]pyridine-2-carboxamide] | 70 nM | 8.9 nM |
| C[C@@H]1CN(CC(=O)N2CC(C)(C)c3c2cc(Cc2ccc(F)cc2)c2nc(C(F)(F)F)cn32)[C@@H](CN2[C@@H](C)COC[C@@H]2C)CN1 [Compound 162, 2-((2R,5R)-2-(((3S,5S)-3,5-dimethylmorpholino)methyl)-5-methylpiperazin-1-yl)-1-(4-(4-fluorobenzyl)-8,8-dimethyl-2-(trifluoromethyl)-7,8-dihydro-6H-imidazo[1,2-a]pyrrolo[2,3-e]pyridin-6-yl)ethan-1-one] | 46 nM | 10 nM |
| C[C@@H]1CN(CC(=O)N2CC(C)(C)c3c2cc(Cc2ccc(F)cc2)c2nn(Cc4ccccn4)c(=O)n32)[C@@H](CN2CCOC[C@H]2C)CN1 [Compound 192, 4-(4-fluorobenzyl)-8,8-dimethyl-6-(2-((2R,5R)-5-methyl-2-(((R)-3-methylmorpholino)methyl)piperazin-1-yl)acetyl)-2-(pyridin-2-ylmethyl)-2,6,7,8-tetrahydro-1H-pyrrolo[2,3-e][1,2,4]triazolo[4,3-a]pyridin-1-one] | 38 nM | 7 nM |
| C[C@@H]1CN(CC(=O)N2CC(C)(C)c3c2cc(Cc2ccc(F)cc2)c2c(C(N)=O)cnn32)[C@@H](CN2CCOC[C@H]2C)CN1 [Compound 149, 4-(4-fluorobenzyl)-8,8-dimethyl-6-(2-((2R,5R)-5-methyl-2-(((R)-3-methylmorpholino)methyl)piperazin-1-yl)acetyl)-7,8-dihydro-6H-pyrazolo[1,5-a]pyrrolo[2,3-e]pyridine-3-carboxamide] | 100 nM | 7 nM |
| C[C@@H]1CN(CC(=O)N2CC(C)(C)c3c2cc(Cc2ccc(F)cc2)c2nc(C(N)=O)nn32)[C@@H](CN2CCOC[C@H]2C)CN1 [Example 31, 4-(4-fluorobenzyl)-8,8-dimethyl-6-(2-((2R,5R)-5-methyl-2-(((R)-3-methylmorpholino)methyl)piperazin-1-yl)acetyl)-7,8-dihydro-6H-pyrrolo[2,3-e][1,2,4]triazolo[1,5-a]pyridine-2-carboxamide] | 370 nM | 3 nM |
| C[C@@H]1CN(CC(=O)N2CC(C)(C)c3c2cc(Cc2ccc(F)cc2)c2nc(CN(C)C)nn32)[C@@H](CN2CCOC[C@H]2C)CN1 [Compound 212, 1-(2-((dimethylamino)methyl)-4-(4-fluorobenzyl)-8,8-dimethyl-7,8-dihydro-6H-pyrrolo[2,3-e][1,2,4]triazolo[1,5-a]pyridin-6-yl)-2-((2R,5R)-5-methyl-2-(((R)-3-methylmorpholino)methyl)piperazin-1-yl)ethan-1-one] | 41 nM | 7 nM |
| C[C@@H]1CN(CC(=O)N2CC(C)(C)c3c2cc(Cc2ccc(F)cc2Cl)c2ncnn32)[C@@H](CN2CCOC[C@H]2C)CN1 [Compound 123, 1-(4-(2-chloro-4-fluorobenzyl)-8,8-dimethyl-7,8-dihydro-6H-pyrrolo[2,3-e][1,2,4]triazolo[1,5-a]pyridin-6-yl)-2-((2R,5R)-5-methyl-2-(((R)-3-methylmorpholino)methyl)piperazin-1-yl)ethan-1-one] | 120 nM | 43 nM |
| C[C@@H]1CN(CC(=O)N2CC(C)(C)c3c2cc(Cc2ccc(F)cc2)c2nc(C4CCOCC4)nn32)[C@@H](CN2CCOC[C@H]2C)CN1 [Compound 140, 1-(4-(4-fluorobenzyl)-8,8-dimethyl-2-(tetrahydro-2H-pyran-4-yl)-7,8-dihydro-6H-pyrrolo[2,3-e][1,2,4]triazolo[1,5-a]pyridin-6-yl)-2-((2R,5R)-5-methyl-2-(((R)-3-methylmorpholino)methyl)piperazin-1-yl)ethan-1-one] | 45 nM | 3 nM |
| C[C@@H]1CN(CC(=O)N2CC(C)(C)c3c2cc(Cc2ccc(F)cc2)c2nc(N4CCOCC4)nn32)[C@@H](CN2CCOC[C@H]2C)CN1 [Compound 143, 1-(4-(4-fluorobenzyl)-8,8-dimethyl-2-morpholino-7,8-dihydro-6H-pyrrolo[2,3-e][1,2,4]triazolo[1,5-a]pyridin-6-yl)-2-((2R,5R)-5-methyl-2-(((R)-3-methylmorpholino)methyl)piperazin-1-yl)ethan-1-one] | 43 nM | 3 nM |
| C[C@@H]1CN(CC(=O)N2CC(C)(C)c3c2cc(Cc2ccc(F)cc2)c2nn(CC(F)(F)CO)c(=O)n32)[C@@H](CN2CCOC[C@H]2C)CN1 [Compound 242, 2-(2,2-difluoro-3-hydroxypropyl)-4-(4-fluorobenzyl)-8,8-dimethyl-6-(2-((2R,5R)-5-methyl-2-(((R)-3-methylmorpholino)methyl)piperazin-1-yl)acetyl)-2,6,7,8-tetrahydro-1H-pyrrolo[2,3-e][1,2,4]triazolo[4,3-a]pyridin-1-one] | 18 nM | 2.7 nM |
| C[C@@H]1CN(CC(=O)N2CC(C)(C)c3c2cc(Cc2ccc(F)cc2)c2nnc(C(F)(F)F)n32)[C@@H](CN2CCOC[C@H]2C)CN1 [Example 13, 1-(4-(4-fluorobenzyl)-8,8-dimethyl-1-(trifluoromethyl)-7,8-dihydro-6H-pyrrolo[2,3-e][1,2,4]triazolo[4,3-a]pyridin-6-yl)-2-((2R,5R)-5-methyl-2-(((R)-3-methylmorpholino)methyl)piperazin-1-yl)ethan-1-one] | 170 nM | 9 nM |
| C[C@@H]1CN(CC(=O)N2CC(C)(C)c3c2cc(C(F)(F)CC2CC2)c2ncnn32)[C@@H](CN2CCOC[C@H]2C)CN1 [Compound 53, 1-(4-(2-cyclopropyl-1,1-difluoroethyl)-8,8-dimethyl-7,8-dihydro-6H-pyrrolo[2,3-e][1,2,4]triazolo[1,5-a]pyridin-6-yl)-2-((2R,5R)-5-methyl-2-(((R)-3-methylmorpholino)methyl)piperazin-1-yl)ethan-1-one] | 130 nM | 60 nM |
| C[C@@H]1CN(CC(=O)N2CC(C)(C)c3c2cc(Cc2ccc(F)cc2)c2nn(CC(C)(C)O)c(=O)n32)[C@@H](CN2CCOC[C@H]2C)CN1 [Compound 231, 4-(4-fluorobenzyl)-2-(2-hydroxy-2-methylpropyl)-8,8-dim ethyl-6-(2-((2R,5R)-5-methyl-2-(((R)-3-methylmorpholino)methyl)piperazin-1-yl)acetyl)-2,6,7,8-tetrahydro-1H-pyrrolo[2,3-e][1,2,4]triazolo[4,3-a]pyridin-1-one] | 28 nM | 4 nM |

More lines, main results first:

| IC50 (MDA-MB-231 cells) | Structure (SMILES) | IC50 (EVSA-T cells) |
| --- | --- | --- |
| 16 nM | C[C@@H]1CN(CC(=O)N2CC(C)(C)c3c2cc(Cc2ccc(F)cc2)c2nc(N)nn32)[C@@H](CN2CCOC[C@H]2C)CN1 [Example 30, 1-(2-amino-4-(4-fluorobenzyl)-8,8-dimethyl-7,8-dihydro-6H-pyrrolo[2,3-e][1,2,4]triazolo[1,5-a]pyridin-6-yl)-2-((2R,5R)-5-methyl-2-(((R)-3-methylmorpholino)methyl)piperazin-1-yl)ethan-1-one] | 3 nM |
| 18 nM | C[C@@H]1CN(CC(=O)N2CC(C)(C)c3c2cc(Cc2ccc(F)cc2)c2nc(C4COCCO4)nn32)[C@@H](CN2CCOC[C@H]2C)CN1 (stereo partly drawn) [Compound 206, 1-(2-(1,4-dioxan-2-yl)-4-(4-fluorobenzyl)-8,8-dimethyl-7,8-dihydro-6H-pyrrolo[2,3-e][1,2,4]triazolo[1,5-a]pyridin-6-yl)-2-((2R,5R)-5-methyl-2-(((R)-3-methylmorpholino)methyl)piperazin-1-yl)ethan-1-one] | 2 nM |
| 5 nM | C[C@@H]1CN(CC(=O)N2CC(C)(C)c3c2cc(Cc2ccc(F)cc2)c2nn(Cc4cccnc4)c(=O)n32)[C@@H](CN2CCOC[C@H]2C)CN1 [Compound 245, 4-(4-fluorobenzyl)-8,8-dimethyl-6-(2-((2R,5R)-5-methyl-2-(((R)-3-methylmorpholino)methyl)piperazin-1-yl)acetyl)-2-(pyridin-3-ylmethyl)-2,6,7,8-tetrahydro-1H-pyrrolo[2,3-e][1,2,4]triazolo[4,3-a]pyridin-1-one] | 6.2 nM |
| 8 nM | C[C@@H]1CN(CC(=O)N2CC(C)(C)c3c2cc(Cc2ccc(F)cc2)c2nc(NC4COC4)nn32)[C@@H](CN2CCOC[C@H]2C)CN1 [Compound 187, 1-(4-(4-fluorobenzyl)-8,8-dimethyl-2-(oxetan-3-ylamino)-7,8-dihydro-6H-pyrrolo[2,3-e][1,2,4]triazolo[1,5-a]pyridin-6-yl)-2-((2R,5R)-5-methyl-2-(((R)-3-methylmorpholino)methyl)piperazin-1-yl)ethan-1-one] | 6 nM |
| 10 nM | COC(=O)Nc1nc2c(Cc3ccc(F)cc3)cc3c(n2n1)C(C)(C)CN3C(=O)CN1C[C@@H](C)NC[C@@H]1CN1CCOC[C@H]1C [Compound 234, methyl (4-(4-fluorobenzyl)-8,8-dimethyl-6-(2-((2R,5R)-5-methyl-2-(((R)-3-methylmorpholino)methyl)piperazin-1-yl)acetyl)-7,8-dihydro-6H-pyrrolo[2,3-e][1,2,4]triazolo[1,5-a]pyridin-2-yl)carbamate] | 0.7 nM |
| 9 nM | C[C@@H]1CN(CC(=O)N2CC(C)(C)c3c2cc(Cc2ccc(F)cc2F)c2nn(C(C)(C)CO)c(=O)n32)[C@@H](CN2CCOC[C@H]2C)CN1 [Compound 275, 4-(2,4-difluorobenzyl)-2-(1-hydroxy-2-methylpropan-2-yl)-8,8-dimethyl-6-(2-((2R,5R)-5-methyl-2-(((R)-3-methylmorpholino)methyl)piperazin-1-yl)acetyl)-2,6,7,8-tetrahydro-1H-pyrrolo[2,3-e][1,2,4]triazolo[4,3-a]pyridin-1-one] | 3.1 nM |
